Assay results published in patent US20100041631A1 (priority 2006, published 2010).
Read-outs that look alike come from different tables or passages of the source.

Experiments:
[1] = molecular target: HsaDH37Rv (Mycobacterium tuberculosis, UniProt P9WNH5); assay type: biochemical, M. tuberculosis H37Rv; conditions: for Vmax / Km: substrate of HsaDH37Rv, standard error in parentheses; for Km: cell extract, pH 8.0, 25 °C
[2] = molecular target: HsaCH37Rv (Mycobacterium tuberculosis, UniProt P9WNW7); assay type: biochemical, M. tuberculosis H37Rv; conditions: for Km: cell extract, pH 8.0, 25 °C
[3] = test system: M. tuberculosis H37Rv; assay: Growth of H37Rv on cholesterol or 4-AD as growth substrate; assay type: cell-based; conditions: for growth of H37Rv colonies on solid medium: substance as the sole organic substrate, no growth on control medium
[4] = molecular target: M tuberculosis HsaC (Mycobacterium tuberculosis, UniProt P9WNW7); assay: Inhibition of cloned M. tuberculosis HsaC, spectroscopic assay; assay type: biochemical; conditions: in a manner consistent with oxidation of the active site Fe(II)
[5] = test system: M. bovis Bacillus Calmette-Guerin (BCG); assay type: cell-based
[6] = substrate of HsaCH37Rv, standard error in parentheses

Sequence of HsaDH37Rv (P9WNH5 whole entry, looked up): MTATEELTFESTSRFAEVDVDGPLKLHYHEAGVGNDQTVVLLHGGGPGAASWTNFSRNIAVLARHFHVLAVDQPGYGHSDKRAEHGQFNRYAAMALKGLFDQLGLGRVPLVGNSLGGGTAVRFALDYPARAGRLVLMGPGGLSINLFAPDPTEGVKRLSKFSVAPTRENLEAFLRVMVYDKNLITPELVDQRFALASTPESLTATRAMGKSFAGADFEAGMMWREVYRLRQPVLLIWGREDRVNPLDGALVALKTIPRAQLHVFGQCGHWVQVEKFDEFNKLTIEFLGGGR
Sequence of HsaCH37Rv (P9WNW7 whole entry, looked up): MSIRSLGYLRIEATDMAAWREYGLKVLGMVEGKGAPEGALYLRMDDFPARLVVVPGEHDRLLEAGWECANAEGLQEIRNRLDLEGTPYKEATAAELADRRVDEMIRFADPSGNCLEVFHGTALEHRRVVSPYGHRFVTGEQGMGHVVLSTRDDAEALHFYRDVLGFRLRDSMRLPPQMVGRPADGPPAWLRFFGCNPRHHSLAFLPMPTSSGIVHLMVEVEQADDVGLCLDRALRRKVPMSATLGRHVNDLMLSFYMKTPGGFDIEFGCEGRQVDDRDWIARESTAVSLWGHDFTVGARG
Sequence of M tuberculosis HsaC (P9WNW7 whole entry, looked up): as above

C/C(=C\C=C(/O)C(=O)O)C(=O)CC[C@@H]1C(=O)CC[C@]2(C)C(=O)CC[C@@H]12 [4,9-DSHA, 4,5-9,10-diseco-3-hydroxy-5,9,17-trioxoandrosta-1(10),2-diene-4-oic acid]
apparent specificity of hydrolysis relative to HOPDA ([1]; […], higher than for HOPDA): 34 fold
Vmax ([1]; […]): 0.06 (0.02) μM^s−1
Km [1]: 4 µM

O=C(O)C(O)=CC=CC(=O)c1ccccc1 [HOPDA, 2-hydroxy-6-oxo-6-phenylpentadienoate]
Vmax ([1]; […]): 0.009 (0.003) μM^s−1
Km [1]: 19 µM

Oc1cccc(-c2ccccc2)c1O [DHB]
Vmax [2]: 2.5 (0.4) μM^s−1
Km [2, 6]: 8.5 µM

Cc1ccc(O)c(O)c1CC[C@@H]1C(=O)CC[C@]2(C)C(=O)CC[C@@H]12 [3,4-DHSA, 3,4-dihydroxy-9,10-seconandrost-1,3,5(10)-triene-9,17-dione]
apparent specificity of extradiol cleavage relative to DHB [2]: 44 fold
Vmax ([2]; substrate of HsaCH37Rv, […], standard error in parentheses): 12 (4) μM^s−1
Km [2, 6]: 0.9 µM

C[C@]12CCC(=O)C=C1CC[C@@H]1[C@@H]2CC[C@]2(C)C(=O)CC[C@@H]12 [4-AD, 4-androstene-3,17-dione]
growth of H37Rv colonies on solid medium [3]: Colonies grew

Oc1cccc(Cl)c1O [3CC, 3-chlorocatechol]
inactivation of HsaC [4]: inactivated HsaC

CC(C)CCC[C@@H](C)[C@H]1CC[C@H]2[C@@H]3CC=C4C[C@@H](O)CC[C@]4(C)[C@H]3CC[C@]12C [cholesterol]
growth of H37Rv in liquid culture ([3]; phospholipid vesicles containing cholesterol versus vesicles containing no cholesterol): grew faster
growth of H37Rv colonies on solid medium [3]: Colonies grew
overall protein yield of BCG culture ([5]; medium supplemented with 0.25 mM cholesterol (0 mM: 22+/−7)): 46 ± 9 µg/mL
overall protein yield of BCG culture ([5]; medium supplemented with 0.5 mM cholesterol (0 mM: 22+/−7)): 70 ± 4 µg/mL
